Results on 20 compounds are retold here after US5463062A, “Substituted cyclohexane derivatives, processes for their preparation and the use of the compounds for treating diseases” (Hoechst Aktiengesellschaft, priority 1992, dated 1995).

One may read the IC50 as the concentration needed to halve the response being measured.

The target of one assay is T1, glucose-6-phosphatase system (Rattus norvegicus, UniProt F7EWB7).
T1 construct: To prepare the microsomal fraction containing the glucose-6-phosphatase, fresh liver organs from male Wistar rats were used; from tissue; host or cells: liver of male Wistar rats, microsomal fraction
T1 sequence (F7EWB7 1-429): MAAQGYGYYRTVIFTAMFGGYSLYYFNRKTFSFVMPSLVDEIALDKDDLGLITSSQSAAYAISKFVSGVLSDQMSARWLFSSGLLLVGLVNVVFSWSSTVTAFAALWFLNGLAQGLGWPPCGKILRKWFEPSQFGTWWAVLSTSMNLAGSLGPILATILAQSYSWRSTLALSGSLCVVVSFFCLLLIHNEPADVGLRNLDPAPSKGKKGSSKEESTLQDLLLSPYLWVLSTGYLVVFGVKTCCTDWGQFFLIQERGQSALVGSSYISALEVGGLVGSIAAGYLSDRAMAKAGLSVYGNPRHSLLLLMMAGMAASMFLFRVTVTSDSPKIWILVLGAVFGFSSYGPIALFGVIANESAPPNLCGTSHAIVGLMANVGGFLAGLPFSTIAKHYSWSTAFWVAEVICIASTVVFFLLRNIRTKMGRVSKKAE
Nature of the assay: enzyme assay of glucose-6-phosphatase activity in liver microsomes (phosphate liberated from glucose-6-phosphate). The format is biochemical, male Wistar rats. As to conditions: TABLE; rat liver microsomes, glucose-6-phosphate 1 mmol/l, pH 7.0, 20 min at room temperature. As to the method: The effect of the compounds according to the invention on the glucose-6-phosphatase system has been investigated in an enzyme assay in liver microsomes.
To prepare the microsomal fraction containing the glucose-6-phosphatase, fresh liver organs from male Wistar rats were used and processed as described in the literature [Canfield, W. K. and Arion, W. J., J. Biol. Chem. 263, 7458-7460, (1988)]. This microsomal fraction can be stored at -70° C. without significant loss of activity for at least 2 months. The glucose-6-phosphatase activity was detected as indicated in the literature [Arion, W. J. in Methods Enzymol. 174, Academic Press 1989, pages 58-67) by determining the phosphate liberated from glucose-6-phosphate. 0.1 ml of assay mixture contained glucose-6-phosphate(1 mmol/l), the test substance, 0.1 mg of microsomal fraction and 100 mmol/l HEPES buffer (4-(2-hydroxyethyl)piperazine-1-ethanesulfonic acid), pH 7.0. The reaction was started by adding the enzyme. After 20 min at room temperature, the reaction was stopped by adding 0.2 ml of phosphate reagent. The sample was incubated at 37° C. for 30 min, and the absorption (A) of the blue color was subsequently measured at 570 nm. The inhibitory activity of the test substance was found by comparison with a control reaction which contained no test substance, using the formula [formula]
Where necessary, the inhibitory effect of the test substance was determined as a function of the test substance concentration employed, and from this the concentration for 50% inhibition of enzyme activity (IC50) was calculated.
The IC50 was determined for the compounds listed hereinafter: […]
For orientation: Liver microsomes are vesicles of endoplasmic reticulum, rich in cytochrome P450 enzymes.
Take `O=C(CC(C1CCCCC1)n1ccnc1)O[C@@H]1C[C@](OCCCc2ccc(Cl)cc2)(C(=O)O)C[C@@H](O)[C@H]1O` (some centres unmarked) [Example 69]: the IC50 is 170 µM.

As to `O=C(CCC1CCCCC1)O[C@@H]1C[C@](OCC2CC2c2ccc(Cl)cc2)(C(=O)O)C[C@@H](O)[C@H]1O` (some centres unmarked) [Example 113], the IC50 was 3.7 µM.

For `O=C(CCCCC1CCCCC1)O[C@@H]1C[C@](OCCCc2ccc(Cl)cc2)(C(=O)O)C[C@@H](O)[C@H]1O` [Example 114], the IC50 turned out to be 5 µM.

As for `O=C(O[C@@H]1C[C@](OCCCc2ccc(Cl)cc2)(C(=O)O)C[C@@H](O)[C@H]1O)C1CCCCC1` [Example 115], the IC50 turned out to be 8.9 µM.

For `O=C(O[C@@H]1C[C@](OCCCc2ccc(Cl)cc2)(C(=O)O)C[C@@H](O)[C@H]1O)c1snnc1-c1ccccc1` [Example 116], the IC50 amounted to 4.5 µM.

Turning to `CC(C)CCC(=O)O[C@@H]1C[C@](OCCCc2ccc(Cl)cc2)(C(=O)O)C[C@@H](O)[C@H]1O` [Example 117], the IC50 was 41 µM.

Turning to `C=Cc1ccc(C(=O)O[C@@H]2C[C@](OCCCc3ccc(Cl)cc3)(C(=O)O)C[C@@H](O)[C@H]2O)cc1` [Example 118], the IC50 is 1.3 µM.

In the case of `O=C(COc1ccccc1)O[C@@H]1C[C@](OCCCc2ccc(Cl)cc2)(C(=O)O)C[C@@H](O)[C@H]1O` [Example 119], the IC50 stood at 12 µM.

For the compound `O=C(CCC1CCCCC1)O[C@@H]1C[C@](OCCCc2ccc(Cl)cc2)(C(=O)O)C[C@@H](O)[C@H]1O` [Example 120], the IC50 amounted to 0.69 µM.

The assay is the same for the next values; noted with them: in words.
Take `O=C(/C=C/c1ccc(O)cc1)O[C@@H]1C[C@](OCc2cccc3ccccc23)(C(=O)O)C[C@H](O)[C@H]1O` [Example 14, [1S,3R,4R,5S]-1-(1-naphthylmethyl)oxy-3-[(E)-3-(4-hydroxyphenyl)-2-propenoyl]oxy-4,5-dihydroxycyclohexanecarboxylic acid]: the “inhibition of the glucose-6-phosphatase system” value is given as “inhibitors of the glucose-6phosphatase system”.

The same assay, now with this note: rat liver microsomes, glucose-6-phosphate 1 mmol/l, pH 7.0, 20 min at room temperature.
Turning to `O=C(/C=C/c1ccc(O)cc1)O[C@@H]1C[C@](OCc2ccccc2)(C(=O)O)C[C@H](O)[C@H]1O` [Example 1, [1S,3R,4R,5S]-3-[(E)-3-(4-hydroxyphenyl)propenoyl]oxy-4,5-dihydroxy-1-phenylmethyloxy-cyclohexanecarboxylic acid], the IC50 was 190 µM.

On to `O=C(/C=C/c1ccc(O)cc1)O[C@@H]1C[C@](OCc2cccs2)(C(=O)O)C[C@H](O)[C@H]1O` [Example 2, [1S,3R,4R,5S]-3-[(E)-3-(4-hydroxyphenyl)-2-propenoyl]oxy-4,5-dihydroxy-1-(2-thienylmethyl)oxycyclohexanecarboxylic acid], for which the IC50 came to 110 µM.

Regarding `C#CCO[C@@]1(C(=O)O)C[C@H](O)[C@@H](O)[C@H](OC(=O)/C=C/c2ccc(O)cc2)C1` [Example 3, [1S,3R,4R,5S]-3-[(E)-3-(4-hydroxyphenyl)-2-propenoyl]oxy-4,5-dihydroxy-1-(2-propynyl)oxycyclohexanecarboxylic acid], the IC50 was found to be 560 µM.

Regarding `O=C(O[C@@H]1C[C@](OCCCc2ccc(Cl)cc2)(C(=O)O)C[C@H](O)[C@H]1O)c1ccccn1` [Example 4, [1S,3R,4R,5S]-1-(4-chlorophenylpropyl)oxy-4,5-dihydroxy-3-(2-pyridinecarbonyl)oxycyclohexanecarboxylic acid], the IC50 turned out to be 26 µM.

For the compound `O=C(CCc1ccc(O)cc1)O[C@@H]1C[C@](OCCCc2ccc(Cl)cc2)(C(=O)O)C[C@@H](O)[C@H]1O` [Example 44, [1S,3R,4R,5S]-1-(4-chlorophenylpropyl)oxy-3-[(E)-3-(4-hydroxyphenyl)propoyl]oxy-4,5-dihydroxycyclohexanecarboxylic acid], the IC50 stood at 9.3 µM.

Staying with this assay, now noted: rat liver microsomes, glucose-6-phosphate 1 mmol/l, pH 7.0, 20 min at room temperature; unit printed as "82 M".
In the case of `CCCO[C@@]1(C(=O)O)C[C@H](O)[C@@H](O)[C@H](OC(=O)/C=C/c2ccc(O)cc2)C1` [Example 8, [1S,3R,4R,5S]-3-[(E)-3-(4-hydroxyphenyl)-2-propenoyl]oxy-4,5-dihydroxy-1-propyloxycyclohexanecarboxylic acid], the IC50 is 230 µM.

A further assay relates to glucose-6-phosphatase.
Experiment: not given
As to conditions: in words, literature; cited from earlier work.
Consider `S=C=Nc1ccccc1C=Cc1ccccc1N=C=S` [2,2'-diisothiocyanatostilbene], for which the “inhibition of glucose-6-phosphatase” value was “non-specific inhibitors of glucose-6-phosphatase”.

Regarding `CC(=O)Oc1ccccc1C=Cc1ccccc1N=C=S` [2-isothiocyanato-2'-acetoxystilbene], the “inhibition of glucose-6-phosphatase” value is listed as “non-specific inhibitors of glucose-6-phosphatase”.

In the case of `O=C(O)c1cc(SSc2ccc([N+](=O)[O-])c(C(=O)O)c2)ccc1[N+](=O)[O-]` [5,5'-dithiobis-2-nitrobenzoic acid], the “inhibition of glucose-6-phosphatase” value is listed as “non-specific inhibitors of glucose-6-phosphatase”.

`O=C(CCc1ccc(O)cc1)c1c(O)cc(O)cc1O[C@@H]1O[C@H](CO)[C@@H](O)[C@H](O)[C@H]1O` [phlorrhizin]: the “inhibition of glucose-6-phosphatase” value is on record as “non-specific inhibitors of glucose-6-phosphatase”.
